From PubChem BioAssay (NCI)
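Where inhibition never reached the appropriate level, the endpoint shown equals the highest concentration tested. Otherwise, values were interpolated linearly from a five-concentration, 48-hour dose response in 96-well plates. Definition used: TGI = concentration required for complete inhibition of growth.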

Experiments:
Assay in all cases: inhibition of tumour cell growth, NCI panel, 48 h
NCI-H460 lung = system: NCI-H460 lung
HCT-15 colon = system: HCT-15 colon
SNB-75 CNS = system: SNB-75 CNS
NCI-H522 lung = system: NCI-H522 lung
A549 NSCLC = system: A549 NSCLC
BT-549 breast = system: BT-549 breast
COLO 205 colon = system: COLO 205 colon
NCI-H226 lung = system: NCI-H226 lung
A498 renal = system: A498 renal
LOX IMVI melanoma = system: LOX IMVI melanoma
MCF7 breast = system: MCF7 breast
MALME-3M melanoma = system: MALME-3M melanoma
UO-31 renal = system: UO-31 renal

Compound | TGI (NCI-H460 lung) [µM] | TGI (HCT-15 colon) [µM] | TGI (SNB-75 CNS) [µM] | TGI (NCI-H522 lung) [µM] | TGI (A549 NSCLC) [µM] | TGI (BT-549 breast) [µM] | TGI (COLO 205 colon) [µM] | TGI (NCI-H226 lung) [µM] | TGI (A498 renal) [µM] | TGI (LOX IMVI melanoma) [µM] | TGI (MCF7 breast) [µM] | TGI (MALME-3M melanoma) [µM] | TGI (UO-31 renal) [µM]
CC1C(OC2O[C@@H]3O[C@@]4(C)CC[C@H]5[C@H](C)CC[C@@H](C2C)[C@@]35O4)O[C@@H]2O[C@@]3(C)CC[C@H]4[C@H](C)CC[C@@H]1[C@@]24O3 (stereo partly specified) | > 50 | > 50 | > 50 | > 50 | > 50 | > 50 | > 50 | > 50 | > 50 | > 50 | > 50 | > 50 | –
C[N+](C)(C)CC(=O)N/N=C/c1ccncc1 | > 100 | > 100 | > 100 | > 100 | > 100 | > 100 | > 100 | > 100 | > 100 | > 100 | > 100 | > 100 | > 100
C/C(=N\Nc1nc2cccnc2s1)c1ccccn1 | > 100 | 21.5 | 6.06 | – | > 34.8 | 15.9 | > 100 | – | > 100 | – | > 54.8 | 42 | 0.307
CC(C)Cc1cc2c(cc1O)CCC1C2CC[C@@]2(C)C1CC[C@@H]2O (stereo partly specified) | 25.5 | 21.7 | 33.3 | 26 | 21.4 | 14.2 | 28.9 | 14.2 | 35.5 | 18.2 | 25.9 | 37 | 13.4
CC1CCC2(CC1)NC1=C(CC(C)CC1)C1=C2CC(C)CC1 (stereo unspecified) | 75.7 | 45.9 | 59.7 | 40 | > 100 | 38.4 | 49.8 | 30.8 | > 100 | 34.9 | 34.5 | 74.5 | 51.7
Fc1ccc(-c2sc(-c3cccs3)cc2Cc2cccs2)cc1 | > 100 | > 100 | > 100 | > 100 | > 100 | > 100 | > 100 | > 100 | > 100 | > 100 | > 100 | > 100 | > 100
FC(F)(Sc1ncc[nH]1)c1nc2ccccc2o1 | > 100 | > 100 | > 100 | > 100 | > 100 | > 100 | > 100 | > 100 | > 100 | – | > 100 | > 100 | > 100
C[C@@H](NC(=O)c1ccc(CNC(=O)/C=C/c2cccc(Oc3ccccc3)c2)cc1)c1ccccc1 | > 100 | > 100 | 20.1 | > 100 | > 57.8 | > 100 | > 100 | > 73.5 | > 90.4 | > 100 | > 100 | > 100 | 27.5
COc1ccc(C(=O)/C=C/c2ccc(OCCSCCCCCCCCCCSCCOc3ccc(/C=C/C(=O)c4ccc(OC)c(OC)c4)cc3)cc2)cc1OC | > 100 | > 100 | > 100 | > 100 | > 100 | > 100 | > 100 | – | > 100 | > 100 | > 100 | > 100 | –
O=C(O)c1ccc(C2SCc3nc4ccccc4n32)cc1 (stereo unspecified) | > 100 | > 100 | > 100 | > 100 | > 100 | > 100 | – | > 100 | > 100 | – | > 100 | > 100 | > 100
Cc1ccc2nc(C=Nc3ccc(Cl)cc3)cc(C)c2c1 | > 70.6 | 0.4 | 57.5 | 26.6 | > 100 | 30 | 6.08 | 72.7 | > 100 | 20.1 | 83.7 | > 64.9 | 7.91
CN1CN(c2ccccc2)C2(CCN(CCC3COc4ccccc4O3)CC2)C1=O (stereo unspecified) | – | > 100 | > 100 | 33.4 | > 100 | 42.5 | 34.2 | 85.1 | – | 50.4 | 72.4 | 38.5 | 38.2
c1ccc2c(c1)CCc1[nH]c3c(c1-2)-c1ccccc1CC3 | > 100 | > 100 | > 100 | > 100 | > 100 | > 100 | > 100 | > 100 | > 100 | > 100 | > 100 | > 100 | > 100
OCCOc1ccccc2cccc1-2 | > 100 | > 100 | > 100 | > 100 | > 100 | > 100 | > 100 | > 100 | > 100 | > 100 | > 100 | > 100 | > 100
CCOP(=O)(OCC)/C(C#N)=C/c1cnc[nH]1 | > 100 | > 100 | > 100 | > 100 | > 100 | > 100 | > 100 | > 100 | > 100 | > 100 | > 100 | > 100 | > 100
O=c1c2cc(Cl)cc(Cl)c2oc2nc3n(c(=O)c12)CCCS3 | > 100 | > 100 | > 100 | 81.6 | > 100 | > 100 | > 100 | > 100 | > 100 | – | > 100 | > 100 | 40.4
O=C(CCCl)NNC1=NCCCN1 | > 100 | > 100 | > 100 | > 100 | > 100 | > 100 | > 100 | > 100 | > 100 | > 100 | > 100 | > 100 | > 100
COc1ccc2nc3ccc(OC)cc3c(SCc3ccccc3)c2c1 | > 100 | > 100 | > 100 | > 100 | > 100 | > 100 | > 100 | > 100 | > 100 | > 100 | > 100 | > 100 | > 35.7

Compound | TGI (NCI-H460 lung) [µM] | TGI (HCT-15 colon) [µM] | TGI (SNB-75 CNS) [µM] | TGI (NCI-H522 lung) [µM] | TGI (A549 NSCLC) [µM] | TGI (BT-549 breast) [µM] | TGI (COLO 205 colon) [µM] | TGI (NCI-H226 lung) [µM] | TGI (A498 renal) [µM] | TGI (LOX IMVI melanoma) [µM] | TGI (MCF7 breast) [µM] | TGI (MALME-3M melanoma) [µM] | TGI (UO-31 renal) [µM]
COc1ccc(C2CC3(c4ccccc4)ON=C(c4ccccc4)N3c3ccccc3S2)cc1 (stereo unspecified) | > 100 | > 100 | > 100 | > 100 | > 100 | > 100 | > 100 | > 100 | > 100 | > 100 | > 100 | > 100 | > 100
COC(=O)/C=C/C1(O)C=CC(=O)C=C1 | > 61.7 | > 31.9 | 24 | 0.598 | > 47.8 | 22.9 | 23.4 | 47.1 | > 60.2 | 4.74 | 13.2 | 8.26 | 3.51
C=C(CN1CC2C[C@](C(=O)OC)(c3cc4ccccc4[nH]3)C1C(OC)C2OC)S(=O)(=O)c1ccccc1 (stereo partly specified) | 12 | 8.61 | 11.6 | 3.79 | 12.6 | 12.4 | 6.14 | 18.8 | – | 3.54 | 18.9 | 7.38 | 3.77
COc1cc2c(cc1OCCCCOc1cc3c(cc1OC)C(=O)N1CCC[C@H]1C(=O)N3)N=C[C@@H]1CCCN1C2=O | 43.9 | 24.6 | 18.1 | 3.24 | 44.9 | 16.8 | 7.41 | 26.7 | 19.9 | 4.22 | 18.1 | 22.5 | 28
COC(=O)CCC(C)C1CCC2C3C(C[C@H](OC(C)=O)[C@]12C)[C@@]1(C)CCC2(C[C@H]1C[C@H]3OC(C)=O)OOC1(CC[C@]3(C)C4C[C@H](OC(C)=O)[C@]5(C)C(C(C)CCC(=O)OC)CCC5C4[C@H](OC(C)=O)C[C@@H]3C1)OO2 (stereo partly specified) | > 100 | > 100 | > 100 | > 100 | > 100 | > 100 | > 100 | > 100 | – | > 100 | > 100 | > 100 | > 100
COC(=O)C1=C(C)C=C(N2CCOCC2)C(C(=O)OC)C1c1ccccc1 (stereo unspecified) | > 10 | > 10 | > 10 | > 10 | > 10 | > 10 | > 10 | > 10 | > 10 | > 10 | > 10 | > 10 | > 10
O=C1C=CC(=O)c2c1ccc1c3ccccc3n(Cc3cccc([N+](=O)[O-])c3)c21 | > 100 | 50.2 | > 100 | 37.2 | > 100 | > 69.7 | 21.2 | > 100 | > 100 | > 100 | 65.6 | 40 | > 100
c1ccc2c(c1)NC1(N3CCCCC3)CCCCC21 (stereo unspecified) | > 100 | > 100 | > 100 | > 100 | > 100 | > 100 | > 100 | > 100 | 98 | > 100 | > 100 | > 100 | > 100
O=C1C=C(OCCCCl)C(=O)c2c(O)ccc(O)c21 | 3.1 | 1.58 | 2.69 | 4.26 | 0.645 | 2.56 | 0.642 | 3.7 | 3.57 | 0.659 | 0.438 | 0.322 | 2.41
Nc1nc2c(ncn2Cc2ccccc2CO)c(=O)[nH]1 | > 100 | > 100 | > 100 | > 100 | > 100 | > 100 | > 100 | > 100 | > 100 | > 100 | > 100 | > 100 | > 100
Cc1cccc(-c2cc(=O)c3c(C)cc(C)nc3[nH]2)c1 | 16.6 | > 56 | 7.36 | 2.85 | > 100 | 30.2 | 8.16 | 31.4 | 29.3 | > 100 | > 100 | > 100 | > 100
Cc1ccc(S(=O)c2sccc2C=O)cc1 (stereo unspecified) | 50.4 | 85.8 | 94.9 | > 100 | > 100 | 60.3 | > 100 | – | > 100 | 32.4 | 43.8 | > 100 | > 100
CN(c1cn(C2CC[C@@H](CO)O2)c(=O)[nH]c1=O)C1CCCCC1 (stereo partly specified) | > 100 | > 100 | > 100 | > 100 | > 100 | > 100 | > 100 | > 100 | > 100 | > 100 | > 100 | > 100 | > 100
Cc1cc(S(=O)(=O)/N=C(/[N-]S(=O)(=O)c2ccc(Cl)cc2)[n+]2ccc(N(C)C)cc2)c(SCC(=O)O)cc1Cl | > 100 | > 100 | > 100 | – | > 100 | > 100 | > 100 | > 100 | > 100 | > 100 | > 100 | > 100 | > 100
CC(OC(=O)C(CC(=O)OC(C)(C)C)NC(=O)OC(C)(C)C)C(=O)OCc1ccccc1 (stereo unspecified) | > 100 | > 100 | > 100 | > 100 | > 100 | > 100 | > 100 | > 100 | – | > 100 | > 100 | > 100 | > 100
O=C(O)CC(Sc1ccccc1)c1ccccc1 (stereo unspecified) | – | > 100 | > 100 | > 100 | > 100 | > 100 | > 100 | > 100 | > 100 | > 100 | > 100 | > 100 | > 100
CCOC(=O)C(C(=S)SC)c1nn2c(=O)cc(C)nc2s1 (stereo unspecified) | 35.6 | 35.3 | 41.3 | 42.5 | 37 | 34.2 | 47.5 | 34.6 | – | 29.4 | 33.1 | 31 | 40
